Values of other authors, collected in patent publication US20240401031A1, “Platform Using iPSC-Derived Cardiomyocytes Carrying Gene Variants as Models of Cardiac Disease and Drug-Response” (SRI INTERNATIONAL, priority 2021, published 2024).

settings: source CredibleMeds

Row | SMILES | Risk (Torsade de Pointes)
1 | Cc1cccc(Nc2ccncc2S(=O)(=O)NC(=O)NC(C)C)c1 [Torsemide] | (CR)
2 | COc1cccc(C2(O)CCCCC2CN(C)C)c1 (stereo not shown) [Tramadol] | (PR)
3 | O=c1n(CCCN2CCN(c3cccc(Cl)c3)CC2)nc2ccccn12 [Trazodone] | (CR)
4 | CC(CN(C)C)CN1c2ccccc2CCc2ccccc21 (stereo not shown) [Trimipramine] | (PR)
5 | CN1[C@@H]2CC[C@H]1C[C@@H](OC(=O)c1c[nH]c3ccccc13)C2 [Tropisetron] | (PR)
6 | COc1cc2c(cc1OC)[C@H]1C[C@@H](OC(=O)[C@@H](N)C(C)C)[C@H](CC(C)C)CN1CC2 [Valbenazine] | (PR)
7 | COc1cc2c(Nc3ccc(Br)cc3F)ncnc2cc1OCC1CCN(C)CC1 [Vandetanib] | (KR)
8 | CCCS(=O)(=O)Nc1ccc(F)c(C(=O)c2c[nH]c3ncc(-c4ccc(Cl)cc4)cc23)c1F [Vemurafenib] | (PR)
9 | C=C/C=C/C[C@@H](C)[C@@H](O)[C@H]1C(=O)N[C@@H](CC)C(=O)N(C)CC(=O)N(C)[C@@H](CC(C)C)C(=O)N[C@@H](C(C)C)C(=O)N(C)[C@@H](CC(C)C)C(=O)N[C@@H](C)C(=O)N[C@H](C)C(=O)N(C)[C@@H](CC(C)C)C(=O)N(C)[C@@H](CC(C)C)C(=O)N(C)[C@@H](C(C)C)C(=O)N1C [Voclosporin] | (PR)
10 | O=C(CCCCCCC(=O)Nc1ccccc1)NO [Vorinostat] | (PR)
11 | Cc1cc(C(C)(C)C)cc(C)c1CC1=NCCN1 [Xylometazoline] | (SR)
12 | O=C1Cc2cc(CCN3CCN(c4nsc5ccccc45)CC3)c(Cl)cc2N1 [Ziprasidone] | (CR)
13 | OCCN1CCN(CC/C=C2/c3ccccc3Sc3ccc(Cl)cc32)CC1 [Zuclopenthixol] | (PR)
